Assay results published in patent publication US20250195530A1, “POLQ INHIBITORS” (ASTRAZENECA AB, priority 2022, published 2025).
Read-outs that look alike come from different tables or passages of the source.

System: DLD-1 BRCA2−/− cells
Assay: Homologous recombination synthetic lethal inhibition of proliferation, DLD-1 BRCA2-/- (Cell Titre Glo 3D)
Assay type: cell-based
Conditions: for IC50: Homo sapiens
How it was run: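 DLD-1 BRCA2−/− (3,000 cells/mL) and parental DLD-1 (1,500 cells/mL) cells in phenol red-free RPMI 1640 with 10% FBS were exposed to a 10-point, three-fold compound series from 10 μM to 0.51 nM at 37 °C, 5% CO2. Medium and compound were replenished on day 6. CellTiter-Glo 3D luminescence was read on day 7 (DLD-1) or day 12 (BRCA2−/−), and IC50 was taken as 50% reduction of maximum signal.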

[1] = DLD-1, DLD-1 BRCA2 −/−, mean, read-out: POLQ PD Prolif Lumin BRCA2 −/− mean pIC50 (converted)
[2] = DLD-1, proliferation, luminescence, taken as DLD-1 BRCA2-/-, read-out: POLQ PD Prolif Lumin (converted)
[3] = DLD-1, DLD-1 BRCA2 −/− cells, mean, read-out: POLQ PD Prolif Lumin BRCA2 −/− mean pIC50 (converted)
[4] = DLD-1, first proliferation column (c5), taken as DLD-1 BRCA2-/-, read-out: POLQ PD Prolif Lumin (converted)
[5] = DLD-1, first proliferation column (c5), DLD-1 BRCA2-/-, read-out: POLQ PD Prolif Lumin (converted)
[6] = DLD-1, DLD-1 BRCA2-/- proliferation, column head only partly shown, read-out: POLQ PD Prolif Lumin (converted)

Question: How did the IC50 [1] turn out when `CC(COc1ccc(-c2nc3c(OC4(C)CC4)ncnc3n2Cc2ccccc2C#N)c(Cl)c1)CC(=O)O` (racemic) [Example U25, 4-(3-chloro-4-(9-(2-cyanobenzyl)-6-(1-methylcyclopropoxy)-9H-purin-8-yl)phenoxy)-3-methylbutanoic acid] was run?
Answer: 0.398 µM

Question: With `Cc1ccnc(Cn2c(-c3ccc(C(=O)N4CCC[C@H](O)C4)cc3Cl)nc3c(OC4(C)CC4)ncnc32)c1` [Example T461, (S)-(3-chloro-4-(6-(1-methylcyclopropoxy)-9-((4-methylpyridin-2-yl)methyl)-9H-purin-8-yl)phenyl)(3-hydroxypiperidin-1-yl)methanone] as the compound, how does the IC50 [2] read?
Answer: 1.26 µM

Question: How did the IC50 [3] turn out when `Cc1ccccc1Cn1c(-c2ccc(CC(N)=O)cc2Cl)nc2c(OC3(C)CC3)ncnc21` [Example T101, 2-(3-chloro-4-(9-(2-methylbenzyl)-6-(1-methylcyclopropoxy)-9H-purin-8-yl)phenyl)acetamide] was run?
Answer: 0.501 µM

Question: Which IC50 [4] does the source give for `Cc1ccnc(Cn2c(-c3ccc(OCCN4CCC4=O)cc3Cl)nc3c(OC4(C)CC4)ncnc32)c1` [Example T313, 1-(2-(3-chloro-4-(6-(1-methylcyclopropoxy)-9-((4-methylpyridin-2-yl)methyl)-9H-purin-8-yl)phenoxy)ethyl)azetidin-2-one] here?
Answer: 0.2 µM

Question: `Cc1ccnc(Cn2c(-c3ccc(C(=O)N4CCCC4)cc3Cl)nc3c(OC4(C)CC4)ncnc32)c1` [Example T309, (3-chloro-4-(6-(1-methylcyclopropoxy)-9-((4-methylpyridin-2-yl)methyl)-9H-purin-8-yl)phenyl)(pyrrolidin-1-yl)methanone] was tested. Which IC50 [4] did it give?
Answer: 0.631 µM

Question: `Cc1ccnc(Cn2c(-c3ccc(OCC(=O)N4CCC(F)CC4)cc3Cl)nc3c(OC4(C)CC4)ncnc32)c1` [Example T553, 2-(3-chloro-4-(6-(1-methylcyclopropoxy)-9-((4-methylpyridin-2-yl)methyl)-9H-purin-8-yl)phenoxy)-1-(4-fluoropiperidin-1-yl)ethan-1-one] was tested. Which IC50 [5] did it give?
Answer: 0.2 µM

Question: With `CC1(Oc2ncnc3c2nc(-c2ccc(OCC[C@@](C)(O)C(=O)O)cc2Cl)n3Cc2cccc(Cl)c2)CC1` [Example T301, (R)-4-(3-chloro-4-(9-(3-chlorobenzyl)-6-(1-methylcyclopropoxy)-9H-purin-8-yl)phenoxy)-2-hydroxy-2-methylbutanoic acid] as the compound, how does the IC50 [4] read?
Answer: 2.51 µM

Question: Which IC50 [6] does the source give for `Cc1ccnc(Cn2c(-c3ccc(C(=O)N4CCNC(=O)C4)cc3Cl)nc3c(OC4(C)CC4)ncnc32)c1` [Example T287, 4-(3-chloro-4-(6-(1-methylcyclopropoxy)-9-((4-methylpyridin-2-yl)methyl)-9H-purin-8-yl)benzoyl)piperazin-2-one] here?
Answer: > 7.94 µM

Question: `CC1(Oc2ncnc3c2nc(-c2ccc(C(=O)O)cc2Cl)n3Cc2cccc(Cl)c2)CC1` [Example T11, 3-chloro-4-(9-(3-chlorobenzyl)-6-(1-methylcyclopropoxy)-9H-purin-8-yl)benzoic acid] was tested. Which IC50 [3] did it give?
Answer: 0.794 µM

Question: Which IC50 (DLD-1, first proliferation column, DLD-1 BRCA2-/-, read-out: POLQ PD Prolif Lumin (converted)) does the source give for `Cc1ccnc(Cn2c(-c3ccc(OCC(=O)N4CCC[C@@H]4CO)cc3Cl)nc3c(OC4(C)CC4)ncnc32)c1` [Example T579, (R)-2-(3-chloro-4-(6-(1-methylcyclopropoxy)-9-((4-methylpyridin-2-yl)methyl)-9H-purin-8-yl)phenoxy)-1-(2-(hydroxymethyl)pyrrolidin-1-yl)ethan-1-one] here?
Answer: 0.501 µM

Question: For `Cc1ccnc(Cn2c(-c3ccc(OCC(=O)N[C@@H]4CCOC4)cc3Cl)nc3c(OC4(C)CC4)ncnc32)c1` [Example T478, (R)-2-(3-chloro-4-(6-(1-methylcyclopropoxy)-9-((4-methylpyridin-2-yl)methyl)-9H-purin-8-yl)phenoxy)-N-(tetrahydrofuran-3-yl)acetamide], which IC50 [2] is on record?
Answer: 0.501 µM

Question: With `Cc1ccnc(Cn2c(-c3ccc(OCCNS(C)(=O)=O)cc3Cl)nc3c(OC4(C)CC4)ncnc32)c1` [Example T144, N-(2-(3-chloro-4-(6-(1-methylcyclopropoxy)-9-((4-methylpyridin-2-yl)methyl)-9H-purin-8-yl)phenoxy)ethyl)methanesulfonamide] as the compound, how does the IC50 [5] read?
Answer: 0.158 µM

Question: For `CC1(Oc2ncnc3c2nc(-c2ccc(OCCN4CC5(CCN5)C4)cc2Cl)n3Cc2cc(Cl)ccn2)CC1` [Example T486, 8-(4-(2-(1,6-diazaspiro[3.3]heptan-6-yl)ethoxy)-2-chlorophenyl)-9-((4-chloropyridin-2-yl)methyl)-6-(1-methylcyclopropoxy)-9H-purine], which IC50 [5] is on record?
Answer: 0.501 µM

Question: With `Cc1ccnc(Cn2c(-c3ccc(NCCN(C)C)cc3Cl)nc3c(OC4(C)CC4)ncnc32)c1` [Example T247, N1-(3-chloro-4-(6-(1-methylcyclopropoxy)-9-((4-methylpyridin-2-yl)methyl)-9H-purin-8-yl)phenyl)-N2,N2-dimethylethane-1,2-diamine] as the compound, how does the IC50 [6] read?
Answer: 0.501 µM

Question: With `CC1(Oc2ncnc3c2nc(-c2ccc(OCCC(C)(C)C(=O)O)cc2Cl)n3Cc2ccccc2C#N)CC1` [Example U17, 4-(3-chloro-4-(9-(2-cyanobenzyl)-6-(1-methylcyclopropoxy)-9H-purin-8-yl)phenoxy)-2,2-dimethylbutanoic acid] as the compound, how does the IC50 [1] read?
Answer: 0.251 µM

Question: How did the IC50 [4] turn out when `Cc1ccnc(Cn2c(-c3ccc(OCCC4(O)COC4)cc3Cl)nc3c(OC4(C)CC4)ncnc32)c1` [Example T334, 3-(2-(3-chloro-4-(6-(1-methylcyclopropoxy)-9-((4-methylpyridin-2-yl)methyl)-9H-purin-8-yl)phenoxy)ethyl)oxetan-3-ol] was run?
Answer: 0.251 µM

Question: With `COc1cccc(Cn2c(-c3ccc(CC(N)=O)cc3Cl)nc3c(OC4(C)CC4)ncnc32)c1` [Example T105, 2-(3-chloro-4-(9-(3-methoxybenzyl)-6-(1-methylcyclopropoxy)-9H-purin-8-yl)phenyl)acetamide] as the compound, how does the IC50 [5] read?
Answer: 0.631 µM

Question: Which IC50 [6] does the source give for `CCNC(=O)Cc1ccc(-c2nc3c(OC4(C)CC4)ncnc3n2Cc2cc(C)ccn2)c(Cl)c1` [Example T213, 2-(3-chloro-4-(6-(1-methylcyclopropoxy)-9-((4-methylpyridin-2-yl)methyl)-9H-purin-8-yl)phenyl)-N-ethylacetamide] here?
Answer: 0.251 µM

Question: For `Cc1ccnc(Cn2c(-c3ccc(N4CC5CC4CCN5)cc3Cl)nc3c(OC4(C)CC4)ncnc32)c1` (racemic) [Example T491, 8-(4-(2,6-diazabicyclo[3.2.1]octan-6-yl)-2-chlorophenyl)-6-(1-methylcyclopropoxy)-9-((4-methylpyridin-2-yl)methyl)-9H-purine], which IC50 [5] is on record?
Answer: 0.501 µM

Question: How did the IC50 [2] turn out when `Cc1ccnc(Cn2c(-c3ccc(C(=O)N4CCC[C@H]4CO)cc3Cl)nc3c(OC4(C)CC4)ncnc32)c1` [Example T466, (S)-(3-chloro-4-(6-(1-methylcyclopropoxy)-9-((4-methylpyridin-2-yl)methyl)-9H-purin-8-yl)phenyl)(2-(hydroxymethyl)pyrrolidin-1-yl)methanone] was run?
Answer: 1 µM

Question: How did the IC50 [5] turn out when `Cc1ccc(C)c(Cn2c(-c3ccc(OCCC(C)C(=O)O)cc3Cl)nc3c(OC4(C)CC4)ncnc32)c1` (single isomer, unassigned) [Example T572, 4-(3-chloro-4-(9-(2,5-dimethylbenzyl)-6-(1-methylcyclopropoxy)-9H-purin-8-yl)phenoxy)-2-methylbutanoic acid] was run?
Answer: 0.631 µM

Question: Which IC50 [2] does the source give for `Cc1ccnc(Cn2c(-c3ccc(OCC(=O)N4CCCC4)cc3Cl)nc3c(OC4(C)CC4)ncnc32)c1` [Example T467, 2-(3-chloro-4-(6-(1-methylcyclopropoxy)-9-((4-methylpyridin-2-yl)methyl)-9H-purin-8-yl)phenoxy)-1-(pyrrolidin-1-yl)ethan-1-one] here?
Answer: 0.316 µM

Question: `CC1(Oc2ncnc3c2nc(-c2ccc(O[C@H]4CC[C@@H](C(=O)O)CC4)cc2Cl)n3Cc2ccccc2C#N)CC1` [Example U16, (1s,4s)-4-(3-chloro-4-(9-(2-cyanobenzyl)-6-(1-methylcyclopropoxy)-9H-purin-8-yl)phenoxy)cyclohexane-1-carboxylic acid] was tested. Which “POLQ PD Prolif Lumin BRCA2 −/− mean pIC50” value (DLD-1 BRCA2 −/−, mean) did it give?
Answer: 6.4

Question: For `Cc1ccnc(Cn2c(-c3ccc(O[C@H]4CCOC4)cc3Cl)nc3c(OC4(C)CC4)ncnc32)c1` [Example T196, (S)-8-(2-chloro-4-((tetrahydrofuran-3-yl)oxy)phenyl)-6-(1-methylcyclopropoxy)-9-((4-methylpyridin-2-yl)methyl)-9H-purine], which IC50 [5] is on record?
Answer: 0.1 µM

Question: Which IC50 [6] does the source give for `COC(=O)NCCOc1ccc(-c2nc3c(OC4(C)CC4)ncnc3n2Cc2cc(C)ccn2)c(Cl)c1` [Example T228, methyl (2-(3-chloro-4-(6-(1-methylcyclopropoxy)-9-((4-methylpyridin-2-yl)methyl)-9H-purin-8-yl)phenoxy)ethyl)carbamate] here?
Answer: 0.126 µM

Question: For `CC(CCOc1ccc(-c2nc3c(OC4(C)CC4)ncnc3n2Cc2cc(C#N)ccc2F)c(Cl)c1)C(=O)O` (racemic) [Example U18, 4-(3-chloro-4-(9-(5-cyano-2-fluorobenzyl)-6-(1-methylcyclopropoxy)-9H-purin-8-yl)phenoxy)-2-methylbutanoic acid], which IC50 [1] is on record?
Answer: 0.398 µM

Question: `COCCOc1ccc(-c2nc3c(OC4(C)CC4)ncnc3n2Cc2cc(C)ccn2)c(Cl)c1` [Example T125, 8-(2-chloro-4-(2-methoxyethoxy)phenyl)-6-(1-methylcyclopropoxy)-9-((4-methylpyridin-2-yl)methyl)-9H-purine] was tested. Which IC50 [5] did it give?
Answer: 0.1 µM

Question: With `CC1(Oc2ncnc3c2nc(-c2ccc(OCCN4CCNCC4)cc2Cl)n3Cc2ccc(F)cn2)CC1` [Example T350, 8-(2-chloro-4-(2-(piperazin-1-yl)ethoxy)phenyl)-9-((5-fluoropyridin-2-yl)methyl)-6-(1-methylcyclopropoxy)-9H-purine] as the compound, how does the IC50 [4] read?
Answer: 2.51 µM
